This note sets out measurements from PMC7185853 (Fish & Shellfish Immunology, 2015).

The subject of this experiment is VHSV. Nature of the experiment: Inhibition of in vitro VHSV infection of ZF4 cells. To be noted: for VHSV-inhibiting concentrations lower than those of the SERPINe1-derived peptide: ZF4 cells, duplicates (Fig. 3). It counts as cell-based, viral haemorrhagic septicemia virus VHSV- 07.71.

As to `O=C(O[C@@H]1Cc2c(O)cc(O)cc2O[C@@H]1c1cc(O)c(O)c(O)c1)c1cc(O)c(O)c(O)c1` [EGCG], the “VHSV-inhibiting concentrations lower than those of the SERPINe1-derived peptide” value is roughly 50 fold.
The same measure, in the same setting: the figure for `O=C(O)C(=O)c1cn(Cc2ccccc2)c2ccc(-c3ccc(OC(F)(F)F)cc3)cc12` [tiplaxtinin] is roughly 50 fold.
Consider tannic acid, for which the “VHSV-inhibiting concentrations lower than those of the SERPINe1-derived peptide” value is reported as roughly 50 fold. In addition, the “Inhibition of VHSV infectivity in vitro” value (68 μg per ml (∼40 μM), ZF4 cells (Fig. 3)) was roughly 95%.
